IC50 and Km data for 4 molecules are collected here from PMC8948214, “Transport efficiency of AtGTR1 dependents on the hydrophobicity of transported glucosinolates” (Scientific Reports, 2022).

For one data set, the target named is T1, AtGTR1 (Arabidopsis thaliana, UniProt Q944G5).
T1 construct: gene NPF2.10; full-length synthesized cDNA with C-terminal 8-His-tag in pESC-URA; expressed in S. cerevisiae FGY217; theoretical 68 kDa; homodimer after purification
T1 sequence (Q944G5 31-636): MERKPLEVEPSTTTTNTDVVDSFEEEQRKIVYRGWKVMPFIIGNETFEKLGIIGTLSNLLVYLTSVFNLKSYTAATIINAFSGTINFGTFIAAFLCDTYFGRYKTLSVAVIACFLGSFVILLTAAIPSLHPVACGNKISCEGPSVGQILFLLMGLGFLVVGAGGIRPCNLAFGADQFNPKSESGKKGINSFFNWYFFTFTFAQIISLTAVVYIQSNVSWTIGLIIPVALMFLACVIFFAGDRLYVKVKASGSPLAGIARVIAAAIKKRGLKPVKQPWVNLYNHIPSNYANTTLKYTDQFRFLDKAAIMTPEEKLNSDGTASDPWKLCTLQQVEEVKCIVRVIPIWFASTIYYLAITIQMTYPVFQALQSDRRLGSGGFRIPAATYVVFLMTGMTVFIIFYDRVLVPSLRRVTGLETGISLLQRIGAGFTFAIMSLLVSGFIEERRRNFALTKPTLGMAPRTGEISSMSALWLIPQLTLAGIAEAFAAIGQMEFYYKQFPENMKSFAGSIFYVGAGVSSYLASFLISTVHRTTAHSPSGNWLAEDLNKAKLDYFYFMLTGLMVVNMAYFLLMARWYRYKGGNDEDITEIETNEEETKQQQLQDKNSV
In words: inhibition of glucotropaeolin uptake in yeast, RP-HPLC. Type of data set: cell-based.

Substrate in data set [1]: O=S(=O)(O)O/N=C(\Cc1ccccc1)S[C@@H]1O[C@H](CO)[C@@H](O)[C@H](O)[C@H]1O
As to the kind of experiment: yeast uptake assay, RP-HPLC of desulfo-glucosinolate. Type of data set: cell-based, Arabidopsis thaliana. As to conditions: 15 min uptake, 2.5-320 μM substrate, pH 5.5, 30 °C, proton-coupled, apparent.

Substrate in data set [2]: O=S(=O)(O)O/N=C(/Cc1c[nH]c2ccccc12)S[C@@H]1O[C@H](CO)[C@@H](O)[C@H](O)[C@H]1O
The description is as above. Type of data set: cell-based, Arabidopsis thaliana. As to conditions: 15 min uptake, 2.5-320 μM substrate, pH 5.5, 30 °C, proton-coupled, apparent.

Regarding `O=C(O)Cc1c[nH]c2ccccc12` [IAA, 3-indoleacetic acid], at AtGTR1, half-maximal inhibition (IC50) required 762 ± 48.1 µM.
Take `CC/C=C\C[C@H]1C(=O)CC[C@@H]1CC(=O)O` [JA, jasmonic acid]: the IC50 (usually the point on the concentration scale where inhibition reaches its midpoint) at AtGTR1 was found to be 938 ± 114 µM.
Same read-out and setting: the value for `O=C(O)c1ccccc1O` [SA, salicylic acid] was 630 ± 47.5 µM.

B1: AtGTR1 (Arabidopsis thaliana) (protein)
chain: T1 sequence (Q944G5 31-636)
notes: full-length synthesized cDNA with C-terminal 8-His-tag in pESC-URA; expressed in S. cerevisiae FGY217; theoretical 68 kDa; homodimer after purification
Take B1: the Km (commonly the substrate concentration at which the rate is half of its maximum) was found to be 13.6 ± 1.55 µM in data set [1] and 8.2 ± 0.60 µM in data set [2].
